Measured values taken from patent publication US12029748B2, “Synergistic composition for maintenance of healthy balance of microflora” (KIMBERLY-CLARK WORLDWIDE, INC., priority 2017, dated 2024).
Where a SMILES comes first, the peptide text is derived from it.

test system: L. crispatus and E. coli; test: Therapeutic Effect Protocol: L. crispatus / E. coli co-culture, ratio after 36 hours; format: cell-based, Lactobacillus crispatus; E. coli; conditions: nitrogen compound 0.10 wt/vol % with 1.0 wt/vol % α methyl-D glucoside (10:1); 36 hours anaerobic co-culture, 37° C.
Experimental: As used herein the term “therapeutic effect” refers to the ability of the compositions and formulations of the present invention to stimulate the growth of Lactobacillus relative E. coli measured according to the Therapeutic Effect Protocol described below. Generally, therapeutic effect is expressed as a ratio of Lactobacillus to E. coli and is desirably greater than about 2, more preferably greater than about 20 and more desirably greater than about 100.
The data in Table 1 was tested according to the Therapeutic Effect Protocol as described further herein. The nitrogen compounds were tested for their therapeutic efficacy at three different concentrations when combined with α methyl-D glucoside (1% wt/vol %). The concentrations of the nitrogen containing compounds that were tested were 1% wt/vol %, 0.5% wt/vol %, and 0.1% wt/vol %.
Colonies of L. crispatus and E. coli were prepared as follows. A colony of L. crispatus was transferred to 7 ml de Man, Rogosa & Sharpe (MRS) broth and incubated anaerobically (using BD GasPak EZ anaerobe container system with indicator) at 37° C. without shaking for 18-20 hours. A colony of E. coli was transferred to 5 ml Tryptic Soy Broth (TSB) and incubated aerobically (shaking at 100 rpm) at 37° C. for 18-20 hours.
Colonies were then inoculated as follows. Bacterial cultures were gently vortexed and 1 mL of each culture was transferred to a corresponding 2.0 mL micro-centrifuge tube and then centrifuged for two minutes at 14,500 rpm. The cultural supernatant was removed and the cell pellet was re-suspended in 1 mL of 0.95% (wt/vol %) saline. […] For L. crispatus, the pellet was re-suspended in 1 mL of 0.95% saline to achieve ˜10^7-10^8 cfu/mL. For E. coli, the pellet was re-suspended in 1 mL of 0.95% saline to achieve ˜10^8-10^9 cfu/mL.
Media were prepared as follows.
(§1) All of the ingredients in Table 2 were combined and the pH was adjusted to 6.5. […] To evaluate the effect of various nitrogen containing therapeutic agents on the growth of bacteria, the LAPT-g media, prepared as described above, was supplemented with various nitrogen containing compound therapeutic agents to a final test concentration between 0.1 and 1.0%. As initial screening measures, solubility and initial pH of each composition were checked. If a specific composition was insoluble (as detected by visual indication of precipitates or turbidity), then no further therapeutic efficacy testing was undertaken on that composition. Additionally, if the initial pH of the composition was below 5.5 (“Low”) or was above 6.5 (“High”), then no further therapeutic efficacy testing was undertaken on that composition.
Five milliliters (5 mL) of each medium was transferred to a test tube in duplicates for subsequent inoculation. A master mixture of L. crispatus and E. coli, prepared as described above, was prepared in 1,000:1 ratio. Each (5 ml) test tube was inoculated with the master mixture to give 10^5-10^6 total CFU L. crispatus and 100-1,000 total CFU E. coli per tube.
To establish a negative control, one tube was vortexed and 100 μL was removed to determine the initial cell concentrations by serial dilutions and plating (2 plates per dilution). L. crispatus is selected on MRS agar plates incubated anaerobically at 37° C. for two days. E. coli is selected on TSA plates incubated aerobically at 37° C. for one day. The co-cultures were incubated in an anaerobic container with BD GasPaks at 37° C. for 36 hours.
The effect of the α methyl-D glucoside and the nitrogen containing compound therapeutic agents on the ratio of L. crispatus to E. coli was measured 36 hours after inoculation and a final pH of the test solutions was recorded. The co-culture tube was vortexed and 100 μL was removed to determine the final cell concentrations by serial dilutions and plating (2 plates per dilution). L. crispatus is selected on MRS agar plates incubated anaerobically at 37° C. for two days.

Question: For `C[C@H](N)C(=O)O` [L-Alanine], which “Therapeutic Efficacy Results (Lactobacillus/E. coli) 0.10%” value is on record?
Answer: 1.5

Question: Which “Therapeutic Efficacy Results (Lactobacillus/E. coli) 0.10%” value does the source give for `Cl.N[C@H]1C(O)O[C@H](CO)[C@@H](O)[C@@H]1O` (stereo partly drawn) [D-Glucosamine HCL] here?
Answer: 77.8

Question: Which “Therapeutic Efficacy Results (Lactobacillus/E. coli) 0.10%” value does the source give for `OC[C@H]1O[C@@H](n2cnc3c(O)ncnc32)[C@H](O)[C@@H]1O` [Inosine] here?
Answer: 2.75E+04

Question: Which “Therapeutic Efficacy Results (Lactobacillus/E. coli) 0.10%” value does the source give for `NCC(=O)N[C@@H](CCC(=O)O)C(=O)O` [Gly-Glu] (H-Gly-Glu-OH) here?
Answer: 6.83

Question: Which “Therapeutic Efficacy Results (Lactobacillus/E. coli) 0.10%” value does the source give for `CCC(N)C(=O)O` (racemic) [DL-a-amino-n-butyric acid] here?
Answer: 0.34

same assay, conditions: nitrogen compound 0.50 wt/vol % with 1.0 wt/vol % α methyl-D glucoside (2:1); 36 hours anaerobic co-culture, 37° C.

Question: Which “Therapeutic Efficacy Results (Lactobacillus/E. coli) 0.50%” value does the source give for `C[C@H](N)C(=O)O` [L-Alanine] here?
Answer: 1.52

Question: Which “Therapeutic Efficacy Results (Lactobacillus/E. coli) 0.50%” value does the source give for `Cl.N[C@H]1C(O)O[C@H](CO)[C@@H](O)[C@@H]1O` (stereo partly drawn) [D-Glucosamine HCL] here?
Answer: 6.00E+06

Question: For `OC[C@H]1O[C@@H](n2cnc3c(O)ncnc32)[C@H](O)[C@@H]1O` [Inosine], which “Therapeutic Efficacy Results (Lactobacillus/E. coli) 0.50%” value is on record?
Answer: 226

Question: With `CCC(N)C(=O)O` (racemic) [DL-a-amino-n-butyric acid] as the molecule, how does the “Therapeutic Efficacy Results (Lactobacillus/E. coli) 0.50%” value read?
Answer: 100

same assay, conditions: nitrogen compound 1.00 wt/vol % with 1.0 wt/vol % α methyl-D glucoside (1:1); 36 hours anaerobic co-culture, 37° C.

Question: For `C[C@H](N)C(=O)O` [L-Alanine], which “Therapeutic Efficacy Results (Lactobacillus/E. coli) 1.00%” value is on record?
Answer: 1.3

Question: For `Cl.N[C@H]1C(O)O[C@H](CO)[C@@H](O)[C@@H]1O` (stereo partly drawn) [D-Glucosamine HCL], which “Therapeutic Efficacy Results (Lactobacillus/E. coli) 1.00%” value is on record?
Answer: 454

Question: With `OC[C@H]1O[C@@H](n2cnc3c(O)ncnc32)[C@H](O)[C@@H]1O` [Inosine] as the molecule, how does the “Therapeutic Efficacy Results (Lactobacillus/E. coli) 1.00%” value read?
Answer: 0.45

Question: Which “Therapeutic Efficacy Results (Lactobacillus/E. coli) 1.00%” value does the source give for `CCC(N)C(=O)O` (racemic) [DL-a-amino-n-butyric acid] here?
Answer: 4.44

same assay, conditions: with α methyl-D glucoside; nitrogen compound 1 wt/vol %, 0.5 wt/vol % and 0.1 wt/vol %

Question: With `Cl.N[C@H]1C(O)O[C@H](CO)[C@@H](O)[C@@H]1O` (stereo partly drawn) [D-Glucosamine HCL] as the molecule, how does the “Therapeutic effect (ratio of Lactobacillus to E. coli greater than 2) at each concentration tested” value read?
Answer: provided a therapeutic effect

same assay, conditions: with α methyl-D glucoside; ratio 1:1

Question: Which “Therapeutic effect when ratio α methyl-D glucoside : nitrogen compound is less than 2:1 (1:1)” value does the source give for `Cl.N[C@H]1C(O)O[C@H](CO)[C@@H](O)[C@@H]1O` (stereo partly drawn) [D-Glucosamine HCL] here?
Answer: provided a therapeutic effect

Question: Which “Therapeutic effect when ratio α methyl-D glucoside : nitrogen compound is less than 2:1 (1:1)” value does the source give for `CCC(N)C(=O)O` (racemic) [DL-a-amino-n-butyric acid] here?
Answer: provided a therapeutic effect

same assay, conditions: with α methyl-D glucoside; ratio at least about 2:1, not 1:1

Question: With `OC[C@H]1O[C@@H](n2cnc3c(O)ncnc32)[C@H](O)[C@@H]1O` [Inosine] as the molecule, how does the “Therapeutic effect when ratio α methyl-D glucoside : nitrogen compound is at least about 2:1, but not at 1:1” value read?
Answer: provided a therapeutic effect

Question: With `NCC(=O)N[C@@H](CCC(=O)O)C(=O)O` [Gly-Glu] (H-Gly-Glu-OH) as the molecule, how does the “Therapeutic effect when ratio α methyl-D glucoside : nitrogen compound is at least about 2:1, but not at 1:1” value read?
Answer: provided a therapeutic effect

Question: Which “Therapeutic effect when ratio α methyl-D glucoside : nitrogen compound is at least about 2:1, but not at 1:1” value does the source give for `CCC(N)C(=O)O` (racemic) [DL-a-amino-n-butyric acid] here?
Answer: provided a therapeutic effect

same assay, conditions: with α methyl-D glucoside; ratios 2:1 and 10:1, not 1:1

Question: With `OC[C@H]1O[C@@H](n2cnc3c(O)ncnc32)[C@H](O)[C@@H]1O` [Inosine] as the molecule, how does the “Therapeutic effect at ratio 2:1 and 10:1, but not at 1:1” value read?
Answer: provided a therapeutic effect

test system: not listed separately; test: Initial pH screening of the composition; format: physicochemical; conditions: nitrogen compound 0.10 wt/vol % with 1.0 wt/vol % α methyl-D glucoside in medium
Description: Each composition in Table 1 went through initial screening measures of solubility and initial pH (“I pH”). […] When a specific concentration of a nitrogen containing compound was insoluble, the initial and final pH (“F pH”) of the combined composition was not measured and accordingly are each marked as “NM.” Additionally, initial pH of the composition was checked as a screening measure. The initial pH was marked as either Low (“L”), High (“H”), or Pass (“P”). A Low initial pH corresponds to an initial pH being less than 5.5, a High initial pH corresponds to an initial pH being greater than 6.5, and a Pass initial pH corresponds to the pH being at or between 5.5-6.5. […] As part of the Therapeutic Effect Protocol, a final pH was also measured after the compositions that were tested against the Lactobacillus and E. coli.
as §1

Question: With `C[C@H](N)C(=O)O` [L-Alanine] as the molecule, how does the “I pH (initial pH), 0.10%” value read?
Answer: P (a Pass initial pH corresponds to the pH being at or between 5.5-6.5)

Question: Which “I pH (initial pH), 0.10%” value does the source give for `Cl.N[C@H]1C(O)O[C@H](CO)[C@@H](O)[C@@H]1O` (stereo partly drawn) [D-Glucosamine HCL] here?
Answer: P (a Pass initial pH corresponds to the pH being at or between 5.5-6.5)

Question: With `OC[C@H]1O[C@@H](n2cnc3c(O)ncnc32)[C@H](O)[C@@H]1O` [Inosine] as the molecule, how does the “I pH (initial pH), 0.10%” value read?
Answer: P (a Pass initial pH corresponds to the pH being at or between 5.5-6.5)

Question: With `NCC(=O)N[C@@H](CCC(=O)O)C(=O)O` [Gly-Glu] (H-Gly-Glu-OH) as the molecule, how does the “I pH (initial pH), 0.10%” value read?
Answer: P (a Pass initial pH corresponds to the pH being at or between 5.5-6.5)

Question: With `CCC(N)C(=O)O` (racemic) [DL-a-amino-n-butyric acid] as the molecule, how does the “I pH (initial pH), 0.10%” value read?
Answer: P (a Pass initial pH corresponds to the pH being at or between 5.5-6.5)

same assay, conditions: nitrogen compound 0.50 wt/vol % with 1.0 wt/vol % α methyl-D glucoside in medium

Question: For `C[C@H](N)C(=O)O` [L-Alanine], which “I pH (initial pH), 0.50%” value is on record?
Answer: P (a Pass initial pH corresponds to the pH being at or between 5.5-6.5)

Question: For `Cl.N[C@H]1C(O)O[C@H](CO)[C@@H](O)[C@@H]1O` (stereo partly drawn) [D-Glucosamine HCL], which “I pH (initial pH), 0.50%” value is on record?
Answer: P (a Pass initial pH corresponds to the pH being at or between 5.5-6.5)

Question: With `OC[C@H]1O[C@@H](n2cnc3c(O)ncnc32)[C@H](O)[C@@H]1O` [Inosine] as the molecule, how does the “I pH (initial pH), 0.50%” value read?
Answer: P (a Pass initial pH corresponds to the pH being at or between 5.5-6.5)

Question: For `NCC(=O)N[C@@H](CCC(=O)O)C(=O)O` [Gly-Glu] (H-Gly-Glu-OH), which “I pH (initial pH), 0.50%” value is on record?
Answer: L (A Low initial pH corresponds to an initial pH being less than 5.5)

Question: For `CCC(N)C(=O)O` (racemic) [DL-a-amino-n-butyric acid], which “I pH (initial pH), 0.50%” value is on record?
Answer: P (a Pass initial pH corresponds to the pH being at or between 5.5-6.5)

same assay, conditions: nitrogen compound 1.00 wt/vol % with 1.0 wt/vol % α methyl-D glucoside in medium

Question: For `C[C@H](N)C(=O)O` [L-Alanine], which “I pH (initial pH), 1.00%” value is on record?
Answer: P (a Pass initial pH corresponds to the pH being at or between 5.5-6.5)

Question: For `Cl.N[C@H]1C(O)O[C@H](CO)[C@@H](O)[C@@H]1O` (stereo partly drawn) [D-Glucosamine HCL], which “I pH (initial pH), 1.00%” value is on record?
Answer: P (a Pass initial pH corresponds to the pH being at or between 5.5-6.5)

Question: With `OC[C@H]1O[C@@H](n2cnc3c(O)ncnc32)[C@H](O)[C@@H]1O` [Inosine] as the molecule, how does the “I pH (initial pH), 1.00%” value read?
Answer: P (a Pass initial pH corresponds to the pH being at or between 5.5-6.5)

Question: With `NCC(=O)N[C@@H](CCC(=O)O)C(=O)O` [Gly-Glu] (H-Gly-Glu-OH) as the molecule, how does the “I pH (initial pH), 1.00%” value read?
Answer: L (A Low initial pH corresponds to an initial pH being less than 5.5)

Question: With `CCC(N)C(=O)O` (racemic) [DL-a-amino-n-butyric acid] as the molecule, how does the “I pH (initial pH), 1.00%” value read?
Answer: P (a Pass initial pH corresponds to the pH being at or between 5.5-6.5)
